Data from patent US20050228016A1, “TETRAHYDROQUINOLINES FOR MODULATING THE EXPRESSION OF EXOGENOUS GENES VIA AN ECDYSONE RECEPTOR COMPLEX” (priority 2002, published 2005).

Columns and labels:
DmEcR + LmUSP = biological target: T1, DmEcR + LmUSP (Drosophila melanogaster, UniProt P34021); assay: cell-based; conditions: for fold induction at 10 µM: NIH3T3, read-out: Fold Induction (10 μM); for fold induction at 100 µM: NIH3T3, read-out: Fold Induction (100 μM)
T1 sequence (P34021 342-878): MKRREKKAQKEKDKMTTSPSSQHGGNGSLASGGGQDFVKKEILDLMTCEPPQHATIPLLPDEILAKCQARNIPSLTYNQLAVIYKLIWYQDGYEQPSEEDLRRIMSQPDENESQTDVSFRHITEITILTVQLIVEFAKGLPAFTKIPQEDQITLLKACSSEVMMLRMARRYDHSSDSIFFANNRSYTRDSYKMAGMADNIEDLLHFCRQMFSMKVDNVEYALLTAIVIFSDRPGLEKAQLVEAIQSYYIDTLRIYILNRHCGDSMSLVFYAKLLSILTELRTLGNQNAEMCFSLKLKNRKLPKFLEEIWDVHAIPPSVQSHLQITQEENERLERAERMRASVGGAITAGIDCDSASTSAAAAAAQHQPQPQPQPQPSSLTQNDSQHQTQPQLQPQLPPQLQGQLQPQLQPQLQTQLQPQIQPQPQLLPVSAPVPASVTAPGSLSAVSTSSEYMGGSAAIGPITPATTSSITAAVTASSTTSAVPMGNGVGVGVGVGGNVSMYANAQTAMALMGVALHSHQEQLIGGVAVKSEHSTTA
Protocol: (§3) To determine if any of the compounds shown in Table 1 and Table 2 can act as inducers of reporter gene activity in a transactivation assay, these compounds were tested in NIH3T3 cells transfected with pFRLUC reporter and gene expression cassettes, 1.1 to 1.8 described in Example 1. […] At 48 hr after adding ligand, the cells were harvested and reporter activity was assayed using Dual Luciferase assay kit (Promega carporation). Total relative light units (RLU) are shown. Standard methods for culture and maintenance of the cells were followed.
(§4) Transfections: DNAs corresponding to the various switch constructs outlined in Example I, specifically switches 1.1 through 1.8, were transfected into mouse NIH3T3 cells (ATCC) as follows. Cells were harvested when they reached 50% confluency and plated in 6-, 12- or 24-well plates at 125,000, 50,000, or 25,000 cells, respectively, in 2.5, 1.0, or 0.5 ml of growth medium containing 10% fetal bovine serum (FBS), respectively. The next day, the cells were rinsed with growth medium and transfected for four hours. […] For 12-well plates, 4 μl of Superfect™ was mixed with 100 μl of growth medium. 1.0 μg of reporter construct and 0.25 μg of each receptor construct of the receptor pair to be analyzed were added to the transfection mix. A second reporter construct was added [pTKRL (Promega), 0.1 μg/transfection mix] that comprises a Renilla luciferase gene operably linked and placed under the control of a thymidine kinase (TK) constitutive promoter and was used for normalization. The contents of the transfection mix were mixed in a vortex mixer and let stand at room temperature for 30 min. At the end of incubation, the transfection mix was added to the cells maintained in 400 μl growth medium. The cells were maintained at 37° C. and 5% CO2 for four hours. At the end of incubation, 500 μl of growth medium containing 20% FBS and either dimethylsulfoxide (DMSO; control) or a DMSO solution of 0.1, 1, and 10 μM ligand was added and the cells were maintained at 37° C. and 5% CO2 for 48 hours. The cells were harvested and reporter activity was assayed. The same procedure was followed for 6 and 24 well plates as well except all the reagents were doubled for 6 well plates and reduced to half for 24-well plates.
(§5) Ligands: All ligands were dissolved in DMSO and the final concentration of DMSO was maintained at 0.1% in both controls and treatments.
(§6) Reporter Assays: Cells were harvested 48 hours after adding ligands. 125, 250, or 500 μl of passive lysis buffer (part of Dual-luciferase™ reporter assay system from Promega Corporation) were added to each well of 24- or 12- or 6-well plates respectively. The plates were placed on a rotary shaker for 15 minutes. Twenty μl of lysate were assayed. Luciferase activity was measured using Dual-luciferase™ reporter assay system from Promega Corporation following the manufacturer's instructions.

Gal4DBD/AaEcR (DEF) = biological target: T2, Gal4DBD/AaEcR (DEF) (Aedes aegypti, UniProt P49880); assay: cell-based; type: cell-based; conditions: for fold induction at 33 µM: NIH3T3, read-out: Fold Induction Average, AA_3T3V1 Assay 33 μM; for Fold Induction Average, AA_3T3V1 Assay 33 μM: 3T3 cells, 48 h, average of two wells
T2 construct: The wildtype D, E, and F domains from mosquito Aedes aegypti EcR; expressed in transfected cells; host or cells: 3T3 cells
In short: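 Single-dose ligand testing at 33 μM, applied in serum medium after 4 h transfection. Host was 3T3 cells carrying Gal4DBD/AaEcR (DEF) plus a 5× GAL4 RE-driven firefly luciferase reporter (pFRLuc).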

[1] = biological target: T3, Bombyx mori EcR (VP16-BmEcR, CVBE) (Bombyx mori, UniProt P49881); assay: Z3 assay (HEK-293 clone Z3 with CVBE and 6x EcRE LacZ, β-galactosidase reporter); type: cell-based; conditions: average of two wells; for fold induction at 33 µM: HEK293, 48 h, read-out: Fold Induction Average, Z3V1 Assay 33 μM; for Fold Induction Average, Z3V1 Assay 33 μM: 48 h
T3 construct: expressed in transfected cells
T3 sequence (P49881 86-606): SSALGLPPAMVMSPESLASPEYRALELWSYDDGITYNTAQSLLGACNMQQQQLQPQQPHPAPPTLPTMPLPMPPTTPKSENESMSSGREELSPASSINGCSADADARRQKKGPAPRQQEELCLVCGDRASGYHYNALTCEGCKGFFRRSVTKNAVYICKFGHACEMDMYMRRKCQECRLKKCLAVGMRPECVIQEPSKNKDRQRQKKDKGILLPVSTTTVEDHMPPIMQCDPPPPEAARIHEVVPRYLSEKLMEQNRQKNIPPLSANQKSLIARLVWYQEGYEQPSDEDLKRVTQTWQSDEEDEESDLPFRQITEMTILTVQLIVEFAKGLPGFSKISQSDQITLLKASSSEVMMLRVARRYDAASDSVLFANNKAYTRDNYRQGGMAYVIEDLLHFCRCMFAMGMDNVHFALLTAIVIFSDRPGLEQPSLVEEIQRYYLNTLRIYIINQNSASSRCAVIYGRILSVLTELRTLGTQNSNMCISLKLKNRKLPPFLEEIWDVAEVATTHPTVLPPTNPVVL

CfEcR + LmUSP = CfEcR + LmUSP in 3T3 cells, reporter assayed 48 h after ligand
Protocol: 1.9—Gal4CfEcR-DEF/VP16LmRXR-EF: This construct was prepared in the same way as switch 1.1 except LmRXR-EF (SEQ ID NO: 18) was used in place of HsRXRβ-LmRXREF chimera.
as §3, §4, §5, §6

[2] = biological target: T4, GAL4AaEcR-DEF/VP16HsRXRβ-EF (Aedes aegypti, UniProt P49880); assay: Transactivation reporter assay, AaEcR based switch (1.4) in NIH3T3 cells; type: cell-based; conditions: mammalian cells; FIGS. 2-5
T4 construct: expressed in transfected cells; host or cells: mouse NIH3T3 cells
T4 sequence (P49880 405-776 limits assumed): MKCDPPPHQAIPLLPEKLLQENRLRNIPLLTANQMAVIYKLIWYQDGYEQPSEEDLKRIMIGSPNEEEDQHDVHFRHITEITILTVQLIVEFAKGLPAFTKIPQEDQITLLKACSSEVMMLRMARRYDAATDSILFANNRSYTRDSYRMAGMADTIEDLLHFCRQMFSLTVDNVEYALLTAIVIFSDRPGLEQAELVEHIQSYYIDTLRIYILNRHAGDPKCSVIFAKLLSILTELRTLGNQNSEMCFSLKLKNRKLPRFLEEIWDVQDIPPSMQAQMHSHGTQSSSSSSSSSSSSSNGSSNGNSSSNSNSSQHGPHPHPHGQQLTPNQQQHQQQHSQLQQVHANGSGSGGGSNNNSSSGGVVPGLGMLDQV
T4 sequence (P28702 299-533 partner limits assumed): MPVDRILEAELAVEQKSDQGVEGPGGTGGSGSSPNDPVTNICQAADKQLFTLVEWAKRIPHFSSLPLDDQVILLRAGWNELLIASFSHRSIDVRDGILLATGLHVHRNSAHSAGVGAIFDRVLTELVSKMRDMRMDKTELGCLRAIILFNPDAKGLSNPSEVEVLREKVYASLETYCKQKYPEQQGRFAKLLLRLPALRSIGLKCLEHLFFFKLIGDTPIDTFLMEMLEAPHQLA
Protocol: Total relative light units (RLU) are shown.
Twenty μl of lysate were assayed.

[3] = system: GAL4 DBD-CfEcR(DEF)/VP16AD-MmRXRE; conditions: CHO 13B3 clone, 48 h, average of two wells
Source text: GAL4 DBD-CfEcR(DEF)/VP16AD-MmRXRE: The wild-type D, E, and F domains from spruce budworm Choristoneura fumiferana EcR (“CfEcR-DEF”; SEQ ID NO: 1) were fused to a GAL4 DNA binding domain (“Gal4DBD1-147”; nucleotides 31 to 471 of SEQ ID NO: 2) and placed under the control of the SV40e promoter of pM vector (PT3119-5, Clontech, Palo Alto, Calif.). The D and E domains from Mus Musculus RXR (“MmRXR-DE”; SEQ ID NO: 22) were fused to the transactivation domain from VP16 (“VP16AD”; SEQ ID NO: 5) and placed under the control of the SV40e promoter of the pVP16 vector (PT3127-5, Clontech, Palo Alto, Calif.).
CHO cells were transiently transfected with transcription cassettes for GAL4 DBD-CfEcR(DEF) and for VP16AD-MmRXRE controlled by SV40e promoters. Stably transfected cells were selected using Hygromycin. Individually isolated CHO cell clones were transiently transfected with a GAL4 RE-luciferase reporter (pFR-Luc, Stratagene, La Jolla, Calif.). The 13B3 clone was selected using Zeocin.
Cells were trypsinized and diluted to a concentration of 2.5×10^4 cells mL. 100 μL of cell suspension was placed in each well of a 96 well plate and incubated at 37° C. under 5% CO2 for 24 h. Ligand stock solutions were prepared in DMSO and diluted 300 fold for all treatments.
(§1) Luciferase reporter gene expression was measured 48 h after cell treatment using Bright-Glo™ Luciferase Assay System from Promega (E2650). Luminescence was detected at room temperature using a Dynex MLX microtiter plate luminometer.
(§2) Each assay was conducted in two separate wells, and the two values were averaged. Fold inductions were calculated by dividing relative light units (“RLU”) in ligand treated cells with RLU in DMSO treated cells.

[4] = system: GAL4 DBD (1-147)-CfEcR(DEF)/VP16AD-βRXREF-LmUSPEF; conditions: CHO 27-63 clone, 48 h, average of two wells
Source text: GAL4 DBD (1-147)-CfEcR(DEF)/VP16AD-βRXREF-LmUSPEF: The wild-type D, E, and F domains from spruce budworm Choristoneura fumiferana EcR (“CfEcR-DEF”; SEQ ID NO: 1) were fused to a GAL4 DNA binding domain (“Gal4DBD1-147”; nucleotides 31 to 471 of SEQ ID NO: 2) and placed under the control of a phosphoglycerate kinase promoter (“PGK”; SEQ ID NO: 19). Helices 1 through 8 of the EF domains from Homo sapiens RXRβ and helices 9 through 12 of the EF domains of Locusta migratoria Ultraspiracle Protein (“HsRXRβ-EF-LmUSP-EF”; SEQ ID NO: 4) were fused to the transactivation domain from VP16 (“VP16AD”; SEQ ID NO: 5) and placed under the control of an elongation factor-1α promoter (“EF-1α”; SEQ ID NO: 20). Five consensus GAL4 response element binding sites (“5× GAL4RE”; comprising 5 copies of a GAL4RE comprising SEQ ID NO: 7) were fused to a synthetic TATA minimal promoter (SEQ ID NO: 21) and placed upstream of the luciferase reporter gene (SEQ ID NO: 9).
CHO cells were transiently transfected with transcription cassettes for GAL4 DBD (1-147) CfEcR(DEF) and for VP16AD βRXREF-LmUSPEF controlled by ubiquitously active cellular promoters (PGK and EF-1α, respectively) on a single plasmid. Stably transfected cells were selected by Zeocin resistance. Individually isolated CHO cell clones were transiently transfected with a GAL4 RE-luciferase reporter (pFR Luc). 27-63 clone was selected using Hygromycin.
Cells were trypsinized and diluted to a concentration of 2.5×10^4 cells mL. 100 μL of cell suspension was placed in each well of a 96 well plate and incubated at 37° C. under 5% CO2 for 24 h. Ligand stock solutions were prepared in DMSO and diluted 300 fold for all treatments. Dose response testing consisted of 8 concentrations ranging from 33 μM to 0.01 μM.
as §1, §2

C[C@H]1C[C@H](Nc2ccc(F)cc2)c2cc(F)ccc2N1C(=O)c1ccc(F)c(Cl)c1 (relative stereo) [Compound I-6, trans-1-(3-chloro-4-fluorobenzoyl)-6-fluoro-2-methyl-4-(4-fluoroanilino)-1,2,3,4-tetrahydroquinoline]
fold induction at 10 µM (DmEcR + LmUSP): 2 | fold induction at 100 µM (DmEcR + LmUSP): 4 | fold induction at 33 µM (Gal4DBD/AaEcR (DEF)): 86 | fold induction at 33 µM [1]: 1 | Fold Induction (10 μM) (CfEcR + LmUSP): 2 fold

C[C@@H]1C[C@H](Nc2ccc(F)cc2)c2cc(F)ccc2N1C(=O)c1ccc(F)c(Cl)c1 (relative stereo) [Compound I-7, cis-1-(3-chloro-4-fluorobenzoyl)-6-fluoro-2-methyl-4-(4-fluoroanilino)-1,2,3,4-tetrahydroquinoline]
fold induction at 10 µM (DmEcR + LmUSP): 14 | fold induction at 100 µM (DmEcR + LmUSP): 8 | fold induction at 33 µM (Gal4DBD/AaEcR (DEF)): 357 | fold induction at 33 µM [1]: 32 | Fold Induction (10 μM) (CfEcR + LmUSP): 94 fold

Cc1ccc(C(=O)N2c3ccc(F)cc3[C@@H](Nc3ccc(F)cc3)C[C@@H]2C)cc1F (relative stereo) [Compound I-12]
Fold Induction Average, AA_3T3V1 Assay 33 μM (Gal4DBD/AaEcR (DEF)): 504 fold | Fold Induction Average, Z3V1 Assay 33 μM [1]: 169 fold | Activity on AaEcR based switches [2]: very active | Fold Induction Average, 13B3V1 Assay 33 μM [3]: 815 fold

Cc1cc(C(=O)N2c3ccc(F)cc3[C@@H](Nc3ccc(F)cc3)C[C@@H]2C)ccc1F (relative stereo) [Compound I-13]
Fold Induction Average, AA_3T3V1 Assay 33 μM (Gal4DBD/AaEcR (DEF)): 189 fold | Fold Induction Average, Z3V1 Assay 33 μM [1]: 105 fold | Activity on AaEcR based switches [2]: very active | Fold Induction Average, 13B3V1 Assay 33 μM [3]: 4 fold

Cc1ccc(C(=O)N2c3ccc(F)cc3[C@H](Nc3ccc(F)cc3)C[C@@H]2C)cc1F (relative stereo) [Compound I-14]
Fold Induction Average, AA_3T3V1 Assay 33 μM (Gal4DBD/AaEcR (DEF)): 518 fold | Fold Induction Average, Z3V1 Assay 33 μM [1]: 7 fold | Activity on AaEcR based switches [2]: very active | Fold Induction Average, 13B3V1 Assay 33 μM [3]: 2 fold

COc1ccc(C(=O)N2c3c(C)cccc3C(Nc3ccccc3C)CC2C)cc1 (centres unmarked) [Compound I-135]
Fold Induction Average, AA_3T3V1 Assay 33 μM (Gal4DBD/AaEcR (DEF)): 1 fold | Fold Induction Average, Z3V1 Assay 33 μM [1]: 1 fold | Fold Induction Average, 27-63V1 Assay 33 μM [4]: 3 fold | Fold Induction Average, 13B3V1 Assay 33 μM [3]: 1 fold
